From PubChem BioAssay AID1963865 (Molecular Pharmacology Branch, DTP, NCI, 2024)

Tested on: KRAS PDC multicell spheroid viability
Experiment: Anticancer human tumor 825966-067-R-J1-PDC patient-derived colon carcinoma cell line growth inhibition [KRAS2]
Conditions: for IC50: curve of first compound; for viability, T/C: stronger effect = lower value
Outline: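 Combination screen of spheroid viability in tumor-cell co-cultures with endothelial (HUVEC) and mesenchymal stem cell stroma. Each agent was tested in half-log dilutions, topping at clinical Cmax or at 10 microM without a known Cmax.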
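Note: spheroids exposed to compounds for 7 days.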
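Throughout, for viability, T/C: 100% = DMSO vehicle control viability.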

`CN(C)C/C=C/C(=O)Nc1cc2c(Nc3ccc(F)c(Cl)c3)ncnc2cc1O[C@H]1CCOC1` + C=CC(=O)N1CCN(c2nc(=O)n(-c3c(C)ccnc3C(C)C)c3nc(-c4c(O)cccc4F)c(F)cc23)C(C)C1 was tested, and the IC50 (second compound 0.1 µM) was over 100 nM, the IC50 (second compound 0.316 µM) was over 100 nM and the IC50 (second compound 1 µM) was over 100 nM. The IC50 (second compound 3.16 µM) was over 100 nM, the IC50 (second compound 10 µM) was over 100 nM and the viability, T/C (second compound 0.1 µM, first compound 0.000316 µM) was 104%. For the same compound, the viability, T/C (second compound 0.1 µM, first compound 0.001 µM) was 114%, the viability, T/C (second compound 0.1 µM, first compound 0.00316 µM) was 110% and the viability, T/C (second compound 0.1 µM, first compound 0.01 µM) was 101%. The viability, T/C (second compound 0.1 µM, first compound 0.0316 µM) was 94.5%, the viability, T/C (second compound 0.1 µM, first compound 0.1 µM) was 106% and the viability, T/C (second compound 0.316 µM, first compound 0.000316 µM) was 97.8%. It also gave a viability, T/C (second compound 0.316 µM, first compound 0.001 µM) of 106%, a viability, T/C (second compound 0.316 µM, first compound 0.00316 µM) of 91.8% and a viability, T/C (second compound 0.316 µM, first compound 0.01 µM) of 101%. For the same compound, the viability, T/C (second compound 0.316 µM, first compound 0.0316 µM) was 103%, the viability, T/C (second compound 0.316 µM, first compound 0.1 µM) was 117% and the viability, T/C (second compound 1 µM, first compound 0.000316 µM) was 110%. For the same compound, the viability, T/C (second compound 1 µM, first compound 0.001 µM) was 101%, the viability, T/C (second compound 1 µM, first compound 0.00316 µM) was 91.2% and the viability, T/C (second compound 1 µM, first compound 0.01 µM) was 112%. For the same compound, the viability, T/C (second compound 1 µM, first compound 0.0316 µM) was 99.3%, the viability, T/C (second compound 1 µM, first compound 0.1 µM) was 107% and the viability, T/C (second compound 3.16 µM, first compound 0.000316 µM) was 98.8%. It also gave a viability, T/C (second compound 3.16 µM, first compound 0.001 µM) of 64.3%, a viability, T/C (second compound 3.16 µM, first compound 0.00316 µM) of 93.2% and a viability, T/C (second compound 3.16 µM, first compound 0.01 µM) of 107%. For the same compound, the viability, T/C (second compound 3.16 µM, first compound 0.0316 µM) was 89%, the viability, T/C (second compound 3.16 µM, first compound 0.1 µM) was 103% and the viability, T/C (second compound 10 µM, first compound 0.000316 µM) was 86.4%. It also gave a viability, T/C (second compound 10 µM, first compound 0.001 µM) of 73.5%, a viability, T/C (second compound 10 µM, first compound 0.00316 µM) of 94.9% and a viability, T/C (second compound 10 µM, first compound 0.01 µM) of 86.4%. It also gave a viability, T/C (second compound 10 µM, first compound 0.0316 µM) of 83.5% and a viability, T/C (second compound 10 µM, first compound 0.1 µM) of 84.1%.
